Patent US9296745B2, “Diacylglycerol acyltransferase 2 inhibitors” (Pfizer Inc., priority 2012, dated 2016)
Like-named read-outs stand apart in the source and are kept apart here.

How the values were obtained:
Human DGAT2 (hDGAT2) = Human DGAT2 (hDGAT2) (Homo sapiens (Human), UniProt Q96PD7); test: In vitro DGAT2 assay, IC50 determination with hDGAT2 membrane fraction; type: biochemical; settings: geometric mean
Summary of the method: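 CHAPS-solubilized membrane fraction of FLAG-tagged hDGAT2 from baculovirus-infected SF9 cells (0.01 mg/mL) in 100 mM Hepes-NaOH pH 7.4, 20 mM MgCl2, 200 nM methyl arachidonyl fluorophosphonate; compounds pre-incubated 20 min with 0.04% BSA. Reaction 40 min at room temperature, stopped with H3PO4. [^14C]tridecanoylglycerol in organic phase counted; 11-point geometric mean IC50.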

DGAT2 = DGAT2 (Homo sapiens (Human), UniProt Q96PD7); test: IC50 determination for DGAT2 inhibitors in human hepatocytes ([1,3-14C]-glycerol incorporation into lipids); type: cell-based; settings: average IC50; cryopreserved human hepatocytes, selective DGAT1 inhibitor (3 μM) in all wells, 3 hour incubation with [1,3-14C]-glycerol; read-out: IC50 (nM) in primary human hepatocyte
Protocol: For evaluation of the effects of DGAT2 inhibitors in a cell-based setting, cryopreserved human hepatocytes (Lot QOC, Celsis, Chicago, Ill.) were thawed and plated onto type I collagen-coated plates according to the manufacturer's instructions. After 24 hours overnight recovery period, the cells were overlayed with media containing 250 μg/ml Matrigel (BD Biosciences, San Jose, Calif.). The following day, media was aspirated and replaced with serum-free Williams Media E (Life Technologies, Grand Island, N.Y.) containing 400 μM sodium dodecanoate (Sigma-Aldrich, St. Louis, Mo.). Forty minutes later, DGAT2 inhibitors (prepared as 100× stocks in 25% DMSO, 75% Williams' Media E) were added to the desired final concentration. […] After a 20 minute preincubation, 0.2 μCi [1,3-^14C]-glycerol (American Radio Chemicals, St. Louis, Mo.) was added to each well and mixed by gentle pipetting prior to a 3 hour incubation. At this point, media was aspirated and the cells were lysed in isopropyl alcohol:tetrahydrofuran (9:1) prior to centrifugation at 3000 rpm for 5 minutes. Radiolabeled lipids were resolved using a 2-solvent system by thin layer chromatography using standard technique (solvent 1 contained ethyl acetate: isopropyl alcohol: chloroform:methanol:0.25% potassium chloride in water (100:100:100:40.2:36.1, v/v/v/v) and solvent 2 contained hexane: diethyl ether: acetic acid (70:27:3, v/v/v)). After separation, radiolabeled lipids were visualized using a Molecular Dynamics' PhosphorImager system. The half maximal inhibitory concentrations (IC50 values) were determined using Graph Pad Prism (GraphPad Software, Inc., La Jolla, Calif.).

[1] = background for complete inhibition of DGAT2 obtained with 50 μM (1R,2R)-2-({3′-Fluoro-4′-[(6-fluoro-1,3-benzothiazol-2-yl)amino]-1,1′-biphenyl-4-yl}carbonyl)cyclopentanecarboxylic acid, read-out: DGAT2 IC50
[2] = background for complete inhibition of DGAT2 obtained with Example 196-A instead of the cyclopentanecarboxylic acid reference, read-out: DGAT2 IC50 (nM), values in the parentheses

Sequence of DGAT2 (Q96PD7 whole entry): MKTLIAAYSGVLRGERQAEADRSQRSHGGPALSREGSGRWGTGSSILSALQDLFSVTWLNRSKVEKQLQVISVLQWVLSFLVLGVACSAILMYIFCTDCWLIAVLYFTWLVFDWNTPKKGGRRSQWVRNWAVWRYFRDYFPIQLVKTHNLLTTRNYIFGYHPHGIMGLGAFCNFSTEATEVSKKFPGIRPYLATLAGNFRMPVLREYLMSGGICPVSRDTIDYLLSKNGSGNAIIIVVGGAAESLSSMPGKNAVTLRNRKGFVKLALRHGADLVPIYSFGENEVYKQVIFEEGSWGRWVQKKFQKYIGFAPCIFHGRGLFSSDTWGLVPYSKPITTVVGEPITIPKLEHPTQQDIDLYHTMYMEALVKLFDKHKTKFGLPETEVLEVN
Sequence of Human DGAT2 (hDGAT2) (Q96PD7 whole entry): as above

## O=C([C@H]1CN(c2ccc3nc(C4(n5cc(Cl)cn5)CC4)[nH]c3n2)CCO1)N1CCCC1 [Example 141, (R)-(4-(2-(1-(4-Chloro-1H-pyrazol-1-yl)cyclopropyl)-3H-imidazo[4,5-b]pyridin-5-yl)morpholin-2-yl)(pyrrolidin-1-yl)methanone]
Human DGAT2 (hDGAT2); [1]
  IC50: 354 nM
Human DGAT2 (hDGAT2); [2]
  IC50: 301 nM
DGAT2
  IC50: 10.7 nM

## O=C([C@H]1CN(c2ccc3nc(-c4cccc(C(F)F)n4)[nH]c3n2)CCO1)N1CCCC1 [Example 175, (R)-(4-(2-(6-(Difluoromethyl)pyridin-2-yl)-3H-imidazo[4,5-b]pyridin-5-yl)morpholin-2-yl)(pyrrolidin-1-yl)methanone]
Human DGAT2 (hDGAT2); [1]
  IC50: 91.3 nM
DGAT2
  IC50: 71.7 nM

## C[C@@H](c1nc2ccc(N3CCC[C@@H](C(=O)N4CCCC4)C3)nc2[nH]1)n1cc(Cl)cn1 [Example 196-A, ((R)-1-(2-((S)-1-(4-Chloro-1H-pyrazol-1-yl)ethyl)-3H-imidazo[4,5-b]pyridin-5-yl)piperidin-3-yl)(pyrrolidin-1-yl)methanone]
Human DGAT2 (hDGAT2); [1]
  IC50: 14.5 nM
Human DGAT2 (hDGAT2); [2]
  IC50: 20.6 nM
DGAT2
  IC50: 4.6 nM

## C[C@H](c1nc2ccc(N3CCC[C@@H](C(=O)N4CCCC4)C3)nc2[nH]1)n1cc(Cl)cn1 [Example 197, ((R)-1-(2-((R)-1-(4-chloro-1H-pyrazol-1-yl)ethyl)-3H-imidazo[4,5-b]pyridin-5-yl)piperidin-3-yl)(pyrrolidin-1-yl)methanone]
Human DGAT2 (hDGAT2); [1]
  IC50: 33.7 nM
DGAT2
  IC50: 5.5 nM

## C[C@@H](c1nc2cnc(N3CCC[C@@H](C(=O)N4CCCC4)C3)nc2[nH]1)n1cc(Cl)cn1 [Example 198, ((R)-1-(8-((S)-1-(4-Chloro-1H-pyrazol-1-yl)ethyl)-9H-purin-2-yl)piperidin-3-yl)(pyrrolidin-1-yl)methanone]
Human DGAT2 (hDGAT2); [1]
  IC50: 43 nM
DGAT2
  IC50: 7.8 nM

## C[C@H](c1nc2cnc(N3CCC[C@@H](C(=O)N4CCCC4)C3)nc2[nH]1)n1cc(Cl)cn1 [Example 199, ((R)-1-(8-((R)-1-(4-chloro-1H-pyrazol-1-yl)ethyl)-9H-purin-2-yl)piperidin-3-yl)(pyrrolidin-1-yl)methanone]
Human DGAT2 (hDGAT2); [1]
  IC50: 18.9 nM
Human DGAT2 (hDGAT2); [2]
  IC50: 32.9 nM
DGAT2
  IC50: 2.5 nM

## O=C([C@@H]1CCCN(c2ncc3nc(C4(n5cc(F)cn5)CC4)[nH]c3n2)C1)N1CCCC1 [Example 209, (R)-(1-(8-(1-(4-Fluoro-1H-pyrazol-1-yl)cyclopropyl)-9H-purin-2-yl)piperidin-3-yl)(pyrrolidin-1-yl)methanone]
Human DGAT2 (hDGAT2); [1]
  IC50: 101 nM
DGAT2
  IC50: 8.9 nM
